The target in assay [1] is T1, GPCR HM74A (niacin receptor) (Homo sapiens, UniProt Q8TDS4).
T1 construct: expressed in transfected cells; host or cells: HEK293
In words: FLIPR in vitro functional assay, intracellular Ca2+ in recombinant HEK293 cells expressing HM74A and hybrid G-protein. The assay is classed as cell-based. The following applies: relative to 1 μM niacin = 100%. Here is the method: in vitro functional assays with recombinant cells; function-testing assays were carried out by means of the FLIPR technique (“Fluorescence Imaging Plate Reader”, Molecular Devices Corp.).
For the investigations, cells were seeded into 96-well microtiter plates (60 000 cells/well) and allowed to grow over night. The medium was removed and the cells were incubated in buffer which contained the fluorescent dye Fluo-4. After this loading with dye, the cells were washed, test substance was added, and changes in the intracellular Ca^2+ concentration were measured in the FLIPR apparatus.

Another assay has as its system lipolysis. In words: Inhibition of lipolysis on the whole animal (plasma FFA, glycerol, triglycerides after p.o. administration). Type of assay: in vivo, Wistar rats. More on the design: FFA / Glycerol / Triglyceride: unit not given here. Conditions: for FFA / Glycerol / Triglyceride: 3 mg/kg po, Wistar rats. Here is the method: The effect was tested on the whole animal (mouse, rat, hamster or dog), after a fasting period (e.g. of about 16 hours the substance is administered (e.g. p.o., iv., i.p., s.c.) and, with or without additional stimulation of endogenous lipolysis (e.g. by a bolus injection of 2 mg/kg i.p. isoprenaline), the effect of the test substance on lipolysis was determined on the basis of the liberated free fatty acids (FFA), glycerol and triglycerides by obtaining a blood sample (e.g. by retroorbital blood sampling) e.g. 15 min, 30, 60, 120 etc minutes after p.o. administration, and analyzing by standard methods of clinical chemistry (e.g. L. Thomas: Labor und Diagnose, 2nd edition, Medizinische Verlagsgesellschaft, Marburg/L. 1984; ISBN 3-921320-10-9)). The inhibition of lipolysis by the inhibitors is analyzed by comparing with the rate of lipolysis in correspondingly treated control animals.

pEC50: −log10 of the molar value.

T1 sequence (Q8TDS4 whole entry): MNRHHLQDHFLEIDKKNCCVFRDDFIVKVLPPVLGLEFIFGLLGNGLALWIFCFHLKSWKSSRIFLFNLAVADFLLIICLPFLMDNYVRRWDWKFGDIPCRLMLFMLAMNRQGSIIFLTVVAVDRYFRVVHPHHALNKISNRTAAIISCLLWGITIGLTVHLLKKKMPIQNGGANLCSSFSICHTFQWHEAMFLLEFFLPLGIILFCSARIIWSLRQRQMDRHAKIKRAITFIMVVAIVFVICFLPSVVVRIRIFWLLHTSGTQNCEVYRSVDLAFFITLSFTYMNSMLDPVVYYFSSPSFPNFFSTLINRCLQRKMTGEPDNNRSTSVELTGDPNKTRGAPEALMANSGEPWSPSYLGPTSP

For orientation: pEC50 means the negative decadic logarithm of the EC50, by convention in mol/L. Turning to `COC(=O)[C@@H]1C[C@H]1C(=O)O` (racemic) [Example 7, 1RS-Methoxycarbonyl-2RS-hydroxycarbonyl-cyclopropane], the negative logarithm of the EC50 (pEC50) in assay [1] is 6.20.

For the compound `COC(=O)[C@H]1[C@H](C(=O)O)C1(C)C` (racemic) [Example 9, 1RS-Methoxycarbonyl-2RS-hydroxycarbonyl-3,3-dimethyl-cyclopropane], in assay [1], the pEC50 is under 4.52.

As for `CCOC(=O)[C@@H]1C[C@H]1C(=O)O` (racemic) [Example 10, 1RS-Ethoxycarbonyl-2RS-hydroxycarbonyl-cyclopropane], the negative-log EC50 (pEC50) in assay [1] was 5.83.

Consider `CCCOC(=O)[C@@H]1C[C@H]1C(=O)O` (racemic) [Example 11, 1RS-Propoxycarbonyl-2RS-hydroxycarbonyl-cyclopropane], for which, in assay [1], the pEC50 was 5.67.

With `CCCCOC(=O)[C@@H]1C[C@H]1C(=O)O` (racemic) [Example 12, 1RS-Butoxycarbonyl-2RS-hydroxycarbonyl-cyclopropane], the pEC50 in assay [1] is 6.17.

Take `CCCCCOC(=O)[C@@H]1C[C@H]1C(=O)O` (racemic) [Example 13, 1RS-Pentoxycarbonyl-2RS-hydroxycarbonyl-cyclopropane]: the negative-log EC50 (pEC50) in assay [1] was 5.79.

For the compound `CC(C)OC(=O)[C@@H]1C[C@H]1C(=O)O` (racemic) [Example 14, 1RS-iso-Propoxycarbonyl-2RS-hydroxycarbonyl-cyclopropane], the pEC50 in assay [1] was under 4.52.

Regarding `O=C(O)[C@@H]1C[C@H]1C(=O)OCC1CCCCC1` (racemic) [Example 15, 1RS-Cyclohexyl-methyloxycarbonyl-2RS-hydroxycarbonyl-cyclopropane], the pEC50 in assay [1] was under 4.52.

On to `CC(C)COC(=O)[C@@H]1C[C@H]1C(=O)O` (racemic) [Example 16, 1RS-isobutoxycarbonyl-2RS-hydroxycarbonyl-cyclopropane], for which the pEC50 in assay [1] was under 4.52.

In the case of `C=CCOC(=O)[C@@H]1C[C@H]1C(=O)O` (racemic) [Example 17, 1RS-allyloxycarbonyl-2RS-hydroxycarbonyl-cyclopropane], the pEC50 in assay [1] is 5.55.

Regarding `C#CCOC(=O)[C@@H]1C[C@H]1C(=O)O` (racemic) [Example 18, 1RS-Propargyloxycarbonyl-2RS-hydroxycarbonyl-cyclopropane], the pEC50 in assay [1] was 5.82.

As for `CC#CCOC(=O)[C@@H]1C[C@H]1C(=O)O` (racemic) [Example 19, 1RS-Butinyloxycarbonyl-2RS-hydroxycarbonyl-cyclopropane], the negative logarithm of the EC50 (pEC50) in assay [1] was 5.79.

As for `CC(C)(C)OC(=O)[C@H]1[C@H](C(=O)O)C1(C)C` (racemic) [Example 20, 1RS-tertButoxycarbonyl-2RS-hydroxycarbonyl-3,3-dimethyl-cyclopropane], in assay [1], the negative logarithm of the EC50 (pEC50) was under 4.52.

For the compound `COC(=O)[C@H]1C[C@@H]1C(=O)OC` (relative stereo) [Example 5, Dimethyl trans-1,2-cyclopropanedicarboxylate], the FFA is on record as 0.47 in the assay on lipolysis (Time 0); 0.17 in the assay with lipolysis (Time 15); 0.13 with lipolysis (Time 30); 0.11 with lipolysis (Time 60); 0.25 in the assay with lipolysis (Time 120). Further, the Glycerol with lipolysis (Time 0) is listed as 87; with lipolysis (Time 15) it was 39; in the assay on lipolysis (Time 30) it was 33; in the assay with lipolysis (Time 60), 28; in the assay with lipolysis (Time 120), 57. Also, the Triglyceride in the assay with lipolysis (Time 0) is 0.45; in the assay with lipolysis (Time 15) it was 0.45; in the assay on lipolysis (Time 30), 0.26; in the assay with lipolysis (Time 60), 0.15; in the assay on lipolysis (Time 120), 0.13. In addition, the “lipolysis (reduction in free fatty acids (FFA), glycerol and triglycerides)” value in the assay with lipolysis (doses of from 0.3 to 30 mg/kg po) is “distinctly reduced”. The negative logarithm of the EC50 (pEC50) in assay [1] is under 4.52.

Take `COC(=O)[C@H]1C[C@]1(C)C(=O)OC` (relative stereo) [Example 6, Dimethyl 1-methyl-trans-cyclopropane-1,2-dicarboxylate]: in assay [1], the negative-log EC50 (pEC50) was under 4.52.

For the compound `CCOC(=O)[C@@H]1C[C@H]1C(=O)OCC` (relative stereo) [Example 8, Diethyl trans-1,2-cyclopropanedicarboxylate], in assay [1], the pEC50 is under 4.52.

For the compound `COC(=O)[C@@H]1C[C@H]1C(=O)O` [Example 1, 1R-Methoxycarbonyl-2R-hydroxycarbonyl-cyclopropane], the negative logarithm of the EC50 (pEC50) in assay [1] was 7.15.

Turning to `COC(=O)[C@@H]1C[C@H]1C(=O)O` [Example 2, 1R-Methoxycarbonyl-2R-hydroxycarbonyl-cyclopropane], the pEC50 in assay [1] was 6.89.

Take `COC(=O)[C@@H]1C[C@H]1C(=O)O` [Example 3, 1R-Methoxycarbonyl-2R-hydroxycarbonyl-cyclopropane]: the negative-log EC50 (pEC50) in assay [1] was 6.72.

For the compound `COC(=O)[C@H]1C[C@H]1C(=O)OC` [Example 4, Dimethyl cis-1,2-cyclopropanedicarboxylate], in assay [1], the pEC50 was under 4.52.

These data come from patent publication US8222240B2, “Use of substituted cyclopropane acid derivatives for producing drugs for use in the treatment of metabolic syndrome” (Sanofi-Aventis Deutschland GmbH, priority 2004, dated 2012).
